Laboratory results from ChEMBL document CHEMBL3632623, “Discovery of Imidazo[1,2-α][1,8]naphthyridine Derivatives as Potential HCV Entry Inhibitor” (ACS Med Chem Lett, 2015).
Calls of active or inactive are those of the source. No cut-off for these calls is given here.

Legend:
Hepatitis C virus [1] = assay: Antiviral activity against HCV genotype 2a JFH-1 infected in human Huh7.5.1 cells after 2 hrs by luciferase assay; type: functional, organism-based, Hepacivirus hominis; settings: JFH-1, Huh-7, 2 h
[2] = Cytotoxicity against human Huh7.5.1 cells; type: cell-based, Huh-7
Hepatitis C virus [3] = assay: Antiviral activity against HCV genotype 1b Con-1 infected in human HuH7 cells after 72 hrs by luciferase based replicon assay; type: functional, organism-based; settings: Hepacivirus hominis; isolate Con1; Huh-7
Hepatitis C virus [4] = assay: Ratio of RO8191 EC50 to compound EC50 for HCV genotype 2a JFH-1 infected in human Huh7.5.1 cells after 2 hrs by luciferase assay; type: functional, Hepacivirus hominis, Huh-7
Enterovirus A71 = assay: Antiviral activity against EV71 infected in human RD cells; type: functional, organism-based; settings: Enterovirus A
[5] = Cytotoxicity against human HepAD38 cells; type: cell-based
[6] = Cytotoxicity against human GHOST cells; type: cell-based
Huh-7 [7] = assay: Activation of ISRE reporter gene in human HuH7 cells at 2 to 50 uM after 24 hrs by luciferase assay; type: functional, cell-based
[8] = AUC ( 0 to infinity) in Wistar rat at 100 mg/kg, po; type: ADME, organism-based; parameters: dose 100 mg/kg, route oral, time infinity; settings: in vivo
HepG2 = assay: Activation of ISRE reporter gene in human HepG2 cells at 2 to 50 uM after 24 hrs by luciferase assay; type: functional, cell-based
[9] = Tmax in Wistar rat at 100 mg/kg, po; type: ADME, organism-based; settings: in vivo
Hepatitis C virus [10] = assay: Antiviral activity against HCV genotype 2a JFH-1 in human Huh7.5.1 cells assessed as inhibition of post-attachment infection phase at 0.2 uM after 3 days by luciferase assay; type: functional, Hepacivirus hominis; settings: JFH-1, Huh-7, 72 h
[11] = Cytotoxicity against human RD cells; type: cell-based
[12] = system: Human immunodeficiency virus; assay: Antiviral activity against HIV infected in human Ghost cells; type: functional, organism-based; settings: Human immunodeficiency virus 1, Ghost
[13] = Cytotoxicity against human HuH7 cells; type: cell-based, Huh-7
[14] = system: Middle East respiratory syndrome-related coronavirus; assay: Antiviral activity against MERS infected in human HuH7 cells; type: functional, cell-based; settings: Huh-7
Hepatitis B virus = assay: Antiviral activity against HBV infected in human HepAD38 cells; type: functional, organism-based
Hepatitis C virus [15] = assay: Antiviral activity against HCV genotype 2a JFH-1 in human Huh7.5.1 cells assessed as reduction of viral entry up to 3 hrs by luciferase assay; type: functional, organism-based; settings: Hepacivirus hominis, Huh-7
Huh-7 [16] = assay: Activation of ISRE reporter gene in human Huh7.5.1 cells at 2 to 50 uM after 24 hrs by luciferase assay; type: functional, cell-based
Hepatitis C virus [17] = assay: Antiviral activity against HCV genotype 2a JFH-1 in human Huh7.5.1 cells assessed as inhibition of viral attachment to heparan sulfate proteoglycans at 0.2 uM at 4 degC by luciferase assay; type: functional, organism-based; settings: Hepacivirus hominis, Huh-7
[18] = AUC ( 0 to 24 hrs) in Wistar rat at 100 mg/kg, po; type: ADME, organism-based; parameters: time < 24 hr, dose 100 mg/kg, route oral; settings: in vivo
[19] = Elimination half life in Wistar rat at 100 mg/kg, po; type: ADME, organism-based; settings: in vivo, read-out: beta t1/2 (converted)
Vero = assay: Activation of ISRE reporter gene in African green monkey Vero cells at 4 to 100 uM after 24 hrs by luciferase assay; type: functional, cell-based; settings: Chlorocebus sabaeus
[20] = Cmax in Wistar rat at 100 mg/kg, po; type: ADME, organism-based; parameters: dose 100 mg/kg, route oral; settings: in vivo
Hepatitis C virus [21] = assay: Antiviral activity against HCV; type: functional, organism-based, Hepacivirus hominis
Hepatitis C virus [22] = assay: Antiviral activity against HCV genotype 2a JFH-1 in human Huh7.5.1 cells assessed as inhibition of viral attachment to heparan sulfate proteoglycans at 10 nM at 4 degC by luciferase assay; type: functional, organism-based; settings: Hepacivirus hominis, Huh-7

Nc1cccc(NC(=O)c2cn3c(ccc4c(C(F)(F)F)cc(C(F)(F)F)nc43)n2)c1
EC50 (Hepatitis C virus [1]): > 20 µM
CC50 [2]: > 25 µM

COC(=O)C1CCN(C(=O)c2cn3c(ccc4c(C(F)(F)F)cc(C(F)(F)F)nc43)n2)CC1
EC50 (Hepatitis C virus [1]): 12.7 µM
CC50 [2]: > 25 µM

CN1CCN(C(=O)c2cn3c(ccc4c(C(F)(F)F)cc(C(F)(F)F)nc43)n2)CC1
Activity (Hepatitis C virus [3]): inactive
EC50 (Hepatitis C virus [1]): 0.159 µM
CC50 [2]: > 25 µM

O=C(c1cn2c(ccc3c(C(F)(F)F)cc(C(F)(F)F)nc32)n1)N1CCC(CO)CC1
EC50 (Hepatitis C virus [1]): > 20 µM
CC50 [2]: > 25 µM

CC1CN(C(=O)c2cn3c(ccc4c(C(F)(F)F)cc(C(F)(F)F)nc43)n2)CCN1 (centres undefined)
Activity (Hepatitis C virus [3]): inactive
EC50 (Hepatitis C virus [1]): 0.067 µM
CC50 [2]: > 25 µM
Ratio EC50 (Hepatitis C virus [4]): 5

NCCCNC(=O)c1cn2c(ccc3c(C(F)(F)F)cc(C(F)(F)F)nc32)n1
EC50 (Hepatitis C virus [1]): 1.3 µM
CC50 [2]: > 25 µM

CNCCN(C)C(=O)c1cn2c(ccc3c(C(F)(F)F)cc(C(F)(F)F)nc32)n1
Activity (Hepatitis C virus [3]): inactive
EC50 (Hepatitis C virus [1]): 0.02 µM
CC50 [2]: > 25 µM
Ratio EC50 (Hepatitis C virus [4]): 5

O=C(c1cn2c(ccc3c(C(F)(F)F)cc(C(F)(F)F)nc32)n1)N1CCNCC1
Activity (Hepatitis C virus [3]): inactive
EC50 (Hepatitis C virus [1]): 0.046 µM
CC50 [2]: > 25 µM
Ratio EC50 (Hepatitis C virus [4]): 5

NCCCCNC(=O)c1cn2c(ccc3c(C(F)(F)F)cc(C(F)(F)F)nc32)n1
EC50 (Hepatitis C virus [1]): 1.13 µM
CC50 [2]: > 25 µM

NC1CCCCC1NC(=O)c1cn2c(ccc3c(C(F)(F)F)cc(C(F)(F)F)nc32)n1 (centres undefined)
Activity (Hepatitis C virus [3]): inactive
EC50 (Hepatitis C virus [1]): 0.048 µM
CC50 [2]: > 25 µM
Ratio EC50 (Hepatitis C virus [4]): 5

NC1CCN(C(=O)c2cn3c(ccc4c(C(F)(F)F)cc(C(F)(F)F)nc43)n2)C1 (centres undefined)
Activity (Hepatitis C virus [3]): inactive
EC50 (Hepatitis C virus [1]): 0.021 µM
CC50 [2]: > 25 µM
Ratio EC50 (Hepatitis C virus [4]): 5

O=C(c1cn2c(ccc3c(C(F)(F)F)cc(C(F)(F)F)nc32)n1)N1CCC(O)CC1
EC50 (Hepatitis C virus [1]): > 20 µM
CC50 [2]: > 25 µM

NCCNC(=O)c1cn2c(ccc3c(C(F)(F)F)cc(C(F)(F)F)nc32)n1
EC50 (Enterovirus A71): > 20 µM
CC50 [5]: > 20 µM
CC50 [6]: > 20 µM
Activity (Huh-7 [7]): inactive
AUC(0-inf) [8]: 19.1 µM·h
Activity (HepG2): inactive
Tmax [9]: 2.17 h
inhibition at 0.2 µM (Hepatitis C virus [10]): 90%
CC50 [11]: > 20 µM
EC50 [12]: > 20 µM
CC50 [13]: > 20 µM
EC50 [14]: > 20 µM
EC50 (Hepatitis B virus): > 20 µM
Activity (Hepatitis C virus [3]): inactive
inhibition (Hepatitis C virus [15]): Active
EC50 (Hepatitis C virus [1]): 0.017 µM
Activity (Huh-7 [16]): inactive
inhibition (Hepatitis C virus [17]): Active
AUC(0-t) at 24 h [18]: 19 µM·h
half-life [19]: 2.93 h
Activity (Vero): inactive
Cmax [20]: 2050 nM
CC50 [2]: > 25 µM
Ratio EC50 (Hepatitis C virus [4]): 5

Nc1ccc(NC(=O)c2cn3c(ccc4c(C(F)(F)F)cc(C(F)(F)F)nc43)n2)cc1
EC50 (Hepatitis C virus [1]): > 20 µM
CC50 [2]: > 25 µM

FC(F)(F)c1cc(C(F)(F)F)c2ccc3nc(-c4nnco4)cn3c2n1
Activity (Huh-7 [7]): Active
Activity (HepG2): Active
Activity (Hepatitis C virus [3]): Active
Activity (Huh-7 [16]): Active
EC50 (Hepatitis C virus [21]): 0.203 µM
Activity (Vero): Active

CCOC(=O)[C@@H](CCCCN)NC(=O)c1cn2c(ccc3c(C(F)(F)F)cc(C(F)(F)F)nc32)n1
EC50 (Hepatitis C virus [1]): 0.14 µM
CC50 [2]: > 25 µM

O=C1CN(C(=O)c2cn3c(ccc4c(C(F)(F)F)cc(C(F)(F)F)nc43)n2)CCN1
EC50 (Hepatitis C virus [1]): 12.5 µM
CC50 [2]: > 25 µM

CN(C)CCNC(=O)c1cn2c(ccc3c(C(F)(F)F)cc(C(F)(F)F)nc32)n1
Activity (Hepatitis C virus [3]): inactive
EC50 (Hepatitis C virus [1]): 0.069 µM
CC50 [2]: > 25 µM

COC(=O)C1CCCN(C(=O)c2cn3c(ccc4c(C(F)(F)F)cc(C(F)(F)F)nc43)n2)C1 (centres undefined)
EC50 (Hepatitis C virus [1]): 2.54 µM
CC50 [2]: > 25 µM

CO/C1=C\C(C)=C\[C@@H](C)[C@@H](O)[C@@H](C)C/C(C)=C/C=C/[C@H](OC)[C@@H]([C@@H](C)[C@@H](O)[C@H](C)[C@@]2(O)C[C@@H](O)[C@H](C)[C@@H](C(C)C)O2)OC1=O
inhibition (Hepatitis C virus [22]): inactive
inhibition (Hepatitis C virus [15]): Active

Nc1ccccc1NC(=O)c1cn2c(ccc3c(C(F)(F)F)cc(C(F)(F)F)nc32)n1
EC50 (Hepatitis C virus [1]): > 20 µM
CC50 [2]: > 25 µM

COC(=O)CN1CCN(C(=O)c2cn3c(ccc4c(C(F)(F)F)cc(C(F)(F)F)nc43)n2)CC1
EC50 (Hepatitis C virus [1]): 13.2 µM
CC50 [2]: > 25 µM

O=C(c1cn2c(ccc3c(C(F)(F)F)cc(C(F)(F)F)nc32)n1)N1CCOCC1
EC50 (Hepatitis C virus [1]): > 20 µM
CC50 [2]: > 25 µM

O=C(c1cn2c(ccc3c(C(F)(F)F)cc(C(F)(F)F)nc32)n1)N1CCCC1CO (centres undefined)
EC50 (Hepatitis C virus [1]): 16.6 µM
CC50 [2]: > 25 µM

NC1CCN(C(=O)c2cn3c(ccc4c(C(F)(F)F)cc(C(F)(F)F)nc43)n2)CC1
Activity (Hepatitis C virus [3]): inactive
EC50 (Hepatitis C virus [1]): 0.102 µM
CC50 [2]: > 25 µM
